In PubChem BioAssay (NCI):
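Method: 48-hour compound exposure of cells in 96-well plates, five concentrations, linear interpolation of endpoints. Definition used: TGI = concentration required for complete inhibition of growth.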

How the values were obtained:
Assay in all cases: inhibition of tumour cell growth, NCI panel, 48 h
[1] = system: HCT-116 colon
[2] = system: SNB-19 CNS
[3] = system: SF-539 CNS
[4] = system: RXF 393 renal
[5] = system: HOP-92 NSCLC
[6] = system: MALME-3M melanoma
[7] = system: TK-10 renal
[8] = system: NCI-H522 lung
[9] = system: U251 CNS
[10] = system: SW-620 colon
[11] = system: HCT-15 colon
[12] = system: NCI-H226 lung
[13] = system: HOP-18 NSCLC
[14] = system: KM12 colon
[15] = system: SNB-78 CNS
[16] = system: M19-MEL melanoma
[17] = system: MOLT-4 leukemia
[18] = system: DLD-1 colon
[19] = system: RPMI-8226 leukemia
[20] = system: OVCAR-3 ovarian
[21] = system: UACC-257 melanoma
[22] = system: 786-0 renal
[23] = system: M14 melanoma
[24] = system: CAKI-1 renal
[25] = system: SR leukemia
[26] = system: LXFL 529 NSCLC
[27] = system: OVCAR-4 ovarian
[28] = system: OVCAR-5 ovarian
[29] = system: A498 renal
[30] = system: COLO 205 colon
[31] = system: EKVX NSCLC
[32] = system: DMS 273 small cell lung
[33] = system: HOP-62 NSCLC
[34] = system: UACC-62 melanoma
[35] = system: HL-60(TB) leukemia
[36] = system: KM20L2 colon
[37] = system: SK-MEL-5 melanoma
[38] = system: SF-295 CNS
[39] = system: OVCAR-8 ovarian
[40] = system: HT29 colon
[41] = system: SN12C renal
[42] = system: IGROV1 ovarian
[43] = system: LOX IMVI melanoma
[44] = system: A549 NSCLC
[45] = system: SK-OV-3 ovarian
[46] = system: HCC-2998 colon
[47] = system: SK-MEL-28 melanoma
[48] = system: CCRF-CEM leukemia
[49] = system: SF-268 CNS
[50] = system: ACHN renal
[51] = system: DMS 114 small cell lung
[52] = system: NCI-H460 lung
[53] = system: SNB-75 CNS
[54] = system: BT-549 breast
[55] = system: MDA-N
[56] = system: HS 578T breast
[57] = system: UO-31 renal
[58] = system: DU-145 prostate
[59] = system: NCI-H23 lung
[60] = system: NCI/ADR-RES ovarian
[61] = system: MDA-MB-231 breast
[62] = system: MCF7 breast
[63] = system: T-47D breast
[64] = system: PC-3 prostate
[65] = system: K-562 leukemia
[66] = system: SK-MEL-2 melanoma
[67] = system: MDA-MB-435

Compound: C[C@]12CCC(=O)C(OC(=O)c3ccc([N+](=O)[O-])cc3)=C1CCC2=O
- TGI [1]: > 100 µM
- TGI [2]: > 100 µM
- TGI [3]: > 100 µM
- TGI [4]: > 100 µM
- TGI [5]: > 100 µM
- TGI [6]: > 100 µM
- TGI [7]: > 100 µM
- TGI [8]: > 100 µM
- TGI [9]: > 100 µM
- TGI [10]: > 100 µM
- TGI [11]: > 100 µM
- TGI [12]: > 100 µM
- TGI [13]: > 100 µM
- TGI [14]: > 100 µM
- TGI [15]: > 100 µM
- TGI [16]: > 100 µM
- TGI [17]: > 100 µM
- TGI [18]: > 100 µM
- TGI [19]: > 100 µM
- TGI [20]: > 100 µM
- TGI [21]: > 100 µM
- TGI [22]: > 100 µM
- TGI [23]: > 100 µM
- TGI [24]: > 100 µM
- TGI [25]: > 100 µM
- TGI [26]: > 100 µM
- TGI [27]: > 100 µM
- TGI [28]: > 100 µM
- TGI [29]: > 100 µM
- TGI [30]: > 100 µM
- TGI [31]: > 100 µM
- TGI [32]: > 100 µM
- TGI [33]: > 100 µM
- TGI [34]: > 100 µM
- TGI [35]: > 100 µM
- TGI [36]: > 100 µM
- TGI [37]: > 100 µM
- TGI [38]: > 100 µM
- TGI [39]: > 100 µM
- TGI [40]: > 100 µM
- TGI [41]: > 100 µM
- TGI [42]: > 100 µM
- TGI [43]: > 100 µM
- TGI [44]: > 100 µM
- TGI [45]: > 100 µM
- TGI [46]: > 100 µM
- TGI [47]: > 100 µM
- TGI [48]: > 100 µM
- TGI [49]: > 100 µM
- TGI [50]: > 100 µM
- TGI [51]: > 100 µM
- TGI [52]: > 100 µM
- TGI [53]: > 100 µM

Compound: CC1=C2CC(C)(C)/C=C\C(=O)/C(C)=C\C3=C[C@H](C)C[C@]3(O2)C1=O
- TGI [1]: 1.09 µM
- TGI [2]: 37.2 µM
- TGI [3]: 3.09 µM
- TGI [54]: 1.5 µM
- TGI [4]: 2.13 µM
- TGI [5]: 2.88 µM
- TGI [6]: 2.34 µM
- TGI [7]: 5 µM
- TGI [8]: 0.651 µM
- TGI [55]: 9.98 µM
- TGI [9]: 9.98 µM
- TGI [10]: 1.49 µM
- TGI [56]: 22.3 µM
- TGI [11]: 2.53 µM
- TGI [57]: 2.61 µM
- TGI [12]: 8.49 µM
- TGI [14]: 6 µM
- TGI [17]: 1.53 µM
- TGI [58]: 12.1 µM
- TGI [19]: 1.51 µM
- TGI [20]: 1.15 µM
- TGI [21]: 4.41 µM
- TGI [59]: 3.76 µM
- TGI [22]: 1.25 µM
- TGI [60]: 7.77 µM
- TGI [23]: 1.27 µM
- TGI [61]: 9.33 µM
- TGI [24]: 2.42 µM
- TGI [25]: 0.826 µM
- TGI [27]: 5.28 µM
- TGI [62]: 2.14 µM
- TGI [28]: 3.37 µM
- TGI [29]: 11.1 µM
- TGI [30]: 9.27 µM
- TGI [31]: 6.15 µM
- TGI [33]: 15.9 µM
- TGI [34]: 3.37 µM
- TGI [35]: 2.43 µM
- TGI [37]: 8.06 µM
- TGI [38]: 22 µM
- TGI [63]: 1.65 µM
- TGI [64]: 7.09 µM
- TGI [39]: 6.82 µM
- TGI [65]: 14.4 µM
- TGI [40]: 2.76 µM
- TGI [41]: 10.2 µM
- TGI [42]: 5.44 µM
- TGI [43]: 1.64 µM
- TGI [44]: 15.5 µM
- TGI [66]: 7.69 µM
- TGI [45]: 24.6 µM
- TGI [46]: 10.2 µM
- TGI [47]: 1.74 µM
- TGI [48]: 0.661 µM
- TGI [49]: 18.4 µM
- TGI [50]: 2.9 µM
- TGI [67]: 1.66 µM
- TGI [52]: 14 µM
- TGI [53]: 12.2 µM
